Test results: paper PMC8550792, “Evolution of kinase polypharmacology across HSP90 drug discovery” (Cell Chemical Biology, 2021)

Legend:
[1] = target: T1, c-Src (Homo sapiens, UniProt P12931); experiment: HotSpot in vitro kinase radiometric assay; type: biochemical
T1 construct: purchased Reaction Biology (HotSpot contract assay)
Procedure, shortened: (§1)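 Inhibition of catalytic activity is quantified by direct detection of the true phosphorylated product. Each compound is incubated with enzyme, substrate, cofactors and radioisotope-labelled ATP, and the mixture is applied to product-binding filters.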

[2] = target: T2, BLK (Homo sapiens, UniProt P51451); experiment: HotSpot in vitro kinase radiometric assay; type: biochemical
T2 construct: purchased Reaction Biology (HotSpot contract assay)
T2 sequence (P51451 whole entry): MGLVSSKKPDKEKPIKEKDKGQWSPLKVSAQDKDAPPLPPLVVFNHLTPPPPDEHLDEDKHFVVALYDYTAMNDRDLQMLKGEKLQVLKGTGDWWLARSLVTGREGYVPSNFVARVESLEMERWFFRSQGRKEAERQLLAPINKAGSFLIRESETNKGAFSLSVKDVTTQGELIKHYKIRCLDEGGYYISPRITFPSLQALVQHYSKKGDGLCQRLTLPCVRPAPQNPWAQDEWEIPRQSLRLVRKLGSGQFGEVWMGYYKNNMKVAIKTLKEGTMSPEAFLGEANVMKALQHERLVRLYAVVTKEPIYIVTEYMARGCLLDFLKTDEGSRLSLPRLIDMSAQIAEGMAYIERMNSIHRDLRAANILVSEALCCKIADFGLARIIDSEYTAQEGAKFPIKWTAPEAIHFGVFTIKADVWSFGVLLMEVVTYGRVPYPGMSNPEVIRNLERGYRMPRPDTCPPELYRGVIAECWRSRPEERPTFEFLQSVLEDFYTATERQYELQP
Procedure, shortened: as §1

[3] = target: T3, PDK2/PDHK2 (Homo sapiens, UniProt Q15119); experiment: HotSpot in vitro kinase radiometric assay; type: biochemical
T3 construct: purchased Reaction Biology (HotSpot contract assay)
Procedure, shortened: as §1

[4] = target: T4, LYN B (Homo sapiens, UniProt P07948); experiment: HotSpot in vitro kinase radiometric assay; type: biochemical
T4 construct: purchased Reaction Biology (HotSpot contract assay)
Procedure, shortened: as §1

[5] = target: T5, PDK4/PDKH4 (Homo sapiens, UniProt Q16654); experiment: HotSpot in vitro kinase radiometric assay; type: biochemical
T5 construct: purchased Reaction Biology (HotSpot contract assay)
Procedure, shortened: as §1

[6] = target: T6, FGR (Homo sapiens, UniProt P09769); experiment: HotSpot in vitro kinase radiometric assay; type: biochemical
T6 construct: purchased Reaction Biology (HotSpot contract assay)

[7] = target: ABL1 (Homo sapiens, UniProt P00519); experiment: HotSpot in vitro kinase radiometric assay; type: biochemical; parameters: purchased Reaction Biology (HotSpot contract assay)
[8] = target: T7, ABL2/ARG (Homo sapiens, UniProt P42684); experiment: HotSpot in vitro kinase radiometric assay; type: biochemical
T7 construct: purchased Reaction Biology (HotSpot contract assay)
T7 sequence (P42684 whole entry): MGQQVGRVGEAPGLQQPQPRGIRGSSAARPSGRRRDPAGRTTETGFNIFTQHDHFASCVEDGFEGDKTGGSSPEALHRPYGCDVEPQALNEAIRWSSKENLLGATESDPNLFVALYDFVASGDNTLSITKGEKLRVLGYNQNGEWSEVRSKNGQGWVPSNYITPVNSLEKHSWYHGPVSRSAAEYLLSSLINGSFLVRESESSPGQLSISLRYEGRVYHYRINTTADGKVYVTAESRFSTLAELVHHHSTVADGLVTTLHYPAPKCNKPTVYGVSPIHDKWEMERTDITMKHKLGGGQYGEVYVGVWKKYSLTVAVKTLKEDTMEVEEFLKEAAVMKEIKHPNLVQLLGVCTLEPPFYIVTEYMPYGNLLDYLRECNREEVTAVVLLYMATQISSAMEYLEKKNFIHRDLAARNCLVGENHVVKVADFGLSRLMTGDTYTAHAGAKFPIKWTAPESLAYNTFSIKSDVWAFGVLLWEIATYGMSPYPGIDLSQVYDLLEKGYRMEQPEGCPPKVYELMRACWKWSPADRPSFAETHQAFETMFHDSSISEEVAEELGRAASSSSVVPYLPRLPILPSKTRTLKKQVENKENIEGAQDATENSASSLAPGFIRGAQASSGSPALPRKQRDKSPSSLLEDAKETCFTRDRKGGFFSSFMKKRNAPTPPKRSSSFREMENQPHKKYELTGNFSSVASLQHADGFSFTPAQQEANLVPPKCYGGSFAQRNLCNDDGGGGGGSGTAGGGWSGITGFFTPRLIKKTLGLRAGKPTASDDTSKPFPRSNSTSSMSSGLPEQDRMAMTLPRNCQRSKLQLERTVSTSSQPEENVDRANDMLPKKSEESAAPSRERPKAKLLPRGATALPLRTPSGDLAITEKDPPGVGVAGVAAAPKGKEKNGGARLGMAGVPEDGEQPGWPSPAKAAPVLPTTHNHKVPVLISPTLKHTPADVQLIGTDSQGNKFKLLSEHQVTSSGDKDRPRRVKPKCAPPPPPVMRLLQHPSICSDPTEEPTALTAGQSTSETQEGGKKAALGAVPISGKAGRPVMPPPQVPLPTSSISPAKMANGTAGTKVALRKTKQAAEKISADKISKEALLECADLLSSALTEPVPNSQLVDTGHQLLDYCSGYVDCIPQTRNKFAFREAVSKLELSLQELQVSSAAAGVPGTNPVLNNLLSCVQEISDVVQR

[9] = tested on: HSP90AB1; parameters: method as in ChEMBL23 (accessed: 23/08/2018); details: average of reported values; ref ChEMBL23 (accessed: 23/08/2018); cited from earlier work
[10] = target: DDR1 (Homo sapiens, UniProt Q08345); experiment: HotSpot in vitro kinase radiometric assay; type: biochemical; parameters: purchased Reaction Biology (HotSpot contract assay)
DDR1, sequence (Q08345 19-913): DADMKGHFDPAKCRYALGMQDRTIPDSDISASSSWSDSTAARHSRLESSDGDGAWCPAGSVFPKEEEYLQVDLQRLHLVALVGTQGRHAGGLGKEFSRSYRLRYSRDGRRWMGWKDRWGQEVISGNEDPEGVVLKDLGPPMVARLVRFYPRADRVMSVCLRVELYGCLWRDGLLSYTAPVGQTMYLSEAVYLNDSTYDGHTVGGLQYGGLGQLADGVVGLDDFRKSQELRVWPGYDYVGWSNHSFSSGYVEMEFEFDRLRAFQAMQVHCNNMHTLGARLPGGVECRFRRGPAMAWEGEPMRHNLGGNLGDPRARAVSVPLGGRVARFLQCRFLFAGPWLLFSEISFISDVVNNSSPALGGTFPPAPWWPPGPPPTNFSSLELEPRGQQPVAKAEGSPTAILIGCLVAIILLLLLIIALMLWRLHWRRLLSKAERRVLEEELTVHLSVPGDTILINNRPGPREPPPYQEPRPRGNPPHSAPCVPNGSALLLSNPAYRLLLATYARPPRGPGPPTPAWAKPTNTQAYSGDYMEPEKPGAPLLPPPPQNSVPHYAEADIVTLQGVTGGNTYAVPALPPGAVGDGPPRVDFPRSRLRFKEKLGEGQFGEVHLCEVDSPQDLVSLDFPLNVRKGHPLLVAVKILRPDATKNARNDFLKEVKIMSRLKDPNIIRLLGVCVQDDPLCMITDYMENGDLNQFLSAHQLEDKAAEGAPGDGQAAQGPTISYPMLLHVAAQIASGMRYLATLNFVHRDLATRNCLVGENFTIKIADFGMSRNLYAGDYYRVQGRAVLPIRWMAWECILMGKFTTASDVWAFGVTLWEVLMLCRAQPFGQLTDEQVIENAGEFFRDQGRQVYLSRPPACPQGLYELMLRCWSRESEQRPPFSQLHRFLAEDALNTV

[11] = tested on: PIM1; parameters: method as in ChEMBL23 (accessed: 23/08/2018); details: average of reported values; ref ChEMBL23 (accessed: 23/08/2018); cited from earlier work
[12] = target: T8, LCK (Homo sapiens, UniProt P06239); experiment: HotSpot in vitro kinase radiometric assay; type: biochemical
T8 construct: purchased Reaction Biology (HotSpot contract assay)

[13] = target: T9, TRKA (Homo sapiens, UniProt P04629); experiment: HotSpot in vitro kinase radiometric assay; type: biochemical
T9 construct: purchased Reaction Biology (HotSpot contract assay)
Procedure, shortened: as §1

[14] = target: T10, PASK (Homo sapiens, UniProt Q96RG2); experiment: HotSpot in vitro kinase radiometric assay; type: biochemical
T10 construct: purchased Reaction Biology (HotSpot contract assay)
Procedure, shortened: as §1

[15] = target: T11, FYN (Homo sapiens, UniProt P06241); experiment: HotSpot in vitro kinase radiometric assay; type: biochemical
T11 construct: purchased Reaction Biology (HotSpot contract assay)

[16] = target: T12, TRKC (Homo sapiens, UniProt Q16288); experiment: HotSpot in vitro kinase radiometric assay; type: biochemical
T12 construct: purchased Reaction Biology (HotSpot contract assay)

[17] = tested on: LTK; parameters: method as in ChEMBL23 (accessed: 23/08/2018); details: average of reported values; ref ChEMBL23 (accessed: 23/08/2018); cited from earlier work
[18] = target: T13, PEAK1 (Homo sapiens, UniProt Q9H792); experiment: HotSpot in vitro kinase radiometric assay; type: biochemical
T13 construct: purchased Reaction Biology (HotSpot contract assay)
T13 sequence (Q9H792 whole entry): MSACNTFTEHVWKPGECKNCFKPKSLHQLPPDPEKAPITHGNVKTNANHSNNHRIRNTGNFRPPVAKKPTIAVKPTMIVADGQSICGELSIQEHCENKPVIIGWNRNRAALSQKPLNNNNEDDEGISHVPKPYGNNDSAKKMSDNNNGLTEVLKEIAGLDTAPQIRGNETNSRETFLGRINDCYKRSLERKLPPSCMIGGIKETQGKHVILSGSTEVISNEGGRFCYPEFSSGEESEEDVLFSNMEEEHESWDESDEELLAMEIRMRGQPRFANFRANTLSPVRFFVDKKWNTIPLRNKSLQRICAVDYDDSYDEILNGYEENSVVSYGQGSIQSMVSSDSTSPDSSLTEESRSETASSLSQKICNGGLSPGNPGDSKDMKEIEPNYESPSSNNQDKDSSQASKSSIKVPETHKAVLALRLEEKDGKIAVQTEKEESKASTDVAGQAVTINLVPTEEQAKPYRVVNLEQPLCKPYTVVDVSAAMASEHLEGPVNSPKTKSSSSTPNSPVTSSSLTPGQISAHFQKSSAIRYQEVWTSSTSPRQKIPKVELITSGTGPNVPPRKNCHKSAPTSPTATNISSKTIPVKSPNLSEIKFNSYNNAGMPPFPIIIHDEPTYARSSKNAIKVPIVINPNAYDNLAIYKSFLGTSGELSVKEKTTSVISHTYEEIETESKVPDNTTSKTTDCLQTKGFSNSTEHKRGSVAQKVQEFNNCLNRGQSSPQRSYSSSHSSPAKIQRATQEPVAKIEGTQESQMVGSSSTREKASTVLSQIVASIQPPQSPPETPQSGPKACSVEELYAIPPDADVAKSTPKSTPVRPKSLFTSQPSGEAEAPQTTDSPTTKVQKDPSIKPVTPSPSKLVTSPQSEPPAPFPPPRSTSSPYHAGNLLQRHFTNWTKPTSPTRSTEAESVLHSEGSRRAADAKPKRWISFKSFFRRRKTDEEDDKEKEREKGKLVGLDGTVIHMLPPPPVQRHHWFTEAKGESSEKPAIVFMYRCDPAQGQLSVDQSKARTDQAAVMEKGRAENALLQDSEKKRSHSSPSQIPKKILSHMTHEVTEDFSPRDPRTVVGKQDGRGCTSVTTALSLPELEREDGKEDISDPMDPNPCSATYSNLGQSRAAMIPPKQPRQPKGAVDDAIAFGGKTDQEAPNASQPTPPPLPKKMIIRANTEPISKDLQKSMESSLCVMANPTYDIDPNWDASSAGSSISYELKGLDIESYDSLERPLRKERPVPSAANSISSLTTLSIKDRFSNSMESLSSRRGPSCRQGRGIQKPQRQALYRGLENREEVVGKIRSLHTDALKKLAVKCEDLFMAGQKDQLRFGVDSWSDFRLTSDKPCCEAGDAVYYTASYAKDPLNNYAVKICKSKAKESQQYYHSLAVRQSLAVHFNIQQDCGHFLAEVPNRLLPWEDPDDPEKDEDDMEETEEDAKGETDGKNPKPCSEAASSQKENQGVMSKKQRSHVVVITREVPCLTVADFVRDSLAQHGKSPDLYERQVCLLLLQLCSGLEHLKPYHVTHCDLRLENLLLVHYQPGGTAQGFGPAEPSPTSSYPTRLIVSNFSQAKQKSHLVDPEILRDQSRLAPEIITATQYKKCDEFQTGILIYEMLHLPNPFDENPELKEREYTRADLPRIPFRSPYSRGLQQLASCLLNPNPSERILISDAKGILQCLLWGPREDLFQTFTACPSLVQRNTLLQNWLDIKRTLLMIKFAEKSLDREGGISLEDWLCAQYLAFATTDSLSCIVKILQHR

[19] = target: T14, YES/YES1 (Homo sapiens, UniProt P07947); experiment: HotSpot in vitro kinase radiometric assay; type: biochemical
T14 construct: purchased Reaction Biology (HotSpot contract assay)

[20] = tested on: MET; parameters: method as in ChEMBL23 (accessed: 23/08/2018); details: average of reported values; ref ChEMBL23 (accessed: 23/08/2018); cited from earlier work

T1 sequence (P12931 whole entry): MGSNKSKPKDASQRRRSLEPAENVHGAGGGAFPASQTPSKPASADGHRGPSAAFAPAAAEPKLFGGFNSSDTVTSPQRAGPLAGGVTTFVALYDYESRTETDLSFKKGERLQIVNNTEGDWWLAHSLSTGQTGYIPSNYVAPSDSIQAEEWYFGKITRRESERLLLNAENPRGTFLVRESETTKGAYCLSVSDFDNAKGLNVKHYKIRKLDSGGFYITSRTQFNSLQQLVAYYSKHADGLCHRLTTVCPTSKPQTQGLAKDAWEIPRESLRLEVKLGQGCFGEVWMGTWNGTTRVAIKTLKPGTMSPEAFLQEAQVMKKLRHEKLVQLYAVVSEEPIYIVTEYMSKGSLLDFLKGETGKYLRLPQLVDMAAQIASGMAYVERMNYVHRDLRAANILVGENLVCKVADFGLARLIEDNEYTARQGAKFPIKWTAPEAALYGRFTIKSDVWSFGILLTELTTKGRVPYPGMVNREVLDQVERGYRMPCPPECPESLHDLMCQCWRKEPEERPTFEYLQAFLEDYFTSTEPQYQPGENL

## CCc1cc(-c2[nH]nc(C)c2-c2ccc3c(c2)OCCO3)c(O)cc1O [CCT018159]
[1]; c-Src, 10uM, ATP 15 uM, Data 1, Data 2, read-out: % Enzyme Activity (relative to DMSO controls)
  remaining activity at 10 µM: 86.2%
[1]; read-out: % inhibition at 10 uM: SRC, 10 μM, Fig 6C median ± standard deviation (n = 2)
  inhibition at 10 µM: 14 ± 1%
[2]; BLK, 10uM, ATP 10 uM, Data 1, Data 2, read-out: % Enzyme Activity (relative to DMSO controls)
  remaining activity at 10 µM: 15.3%
[2]; read-out: % inhibition at 10 uM: BLK, 10 μM, Fig 6C median ± standard deviation (n = 2)
  inhibition at 10 µM: 85 ± 1%
[3]; PDK2/PDHK2, 10uM, ATP 15 uM, Data 1, Data 2, read-out: % Enzyme Activity (relative to DMSO controls)
  remaining activity at 10 µM: 42.8%
[3]; read-out: % inhibition at 10 uM: PDK2, 10 μM, Fig 6C median ± standard deviation (n = 2)
  inhibition at 10 µM: 50 ± 10%
[4]; LYN B, 10uM, ATP 20 uM, Data 1, Data 2, read-out: % Enzyme Activity (relative to DMSO controls)
  remaining activity at 10 µM: 100%
[4]; read-out: % inhibition at 10 uM: LYN B, 10 μM, Fig 6C median ± standard deviation (n = 2)
  inhibition at 10 µM: -1 ± 1%
[5]; PDK4/PDKH4, 10uM, ATP 30 uM, Data 1, Data 2, read-out: % Enzyme Activity (relative to DMSO controls)
  remaining activity at 10 µM: 66.3%
[5]; read-out: % inhibition at 10 uM: PDK4, 10 μM, Fig 6C median ± standard deviation (n = 2)
  inhibition at 10 µM: 33 ± 1%
[6]; FGR, 10uM, ATP 50 uM, Data 1, Data 2, read-out: % Enzyme Activity (relative to DMSO controls)
  remaining activity at 10 µM: 26.1%
[6]; read-out: % inhibition at 10 uM: FGR, 10 μM, Fig 6C median ± standard deviation (n = 2)
  inhibition at 10 µM: 71 ± 4%
[7]; ABL1, 10uM, ATP 40 uM, Data 1, Data 2, read-out: % Enzyme Activity (relative to DMSO controls)
  remaining activity at 10 µM: 80%
[7]; read-out: % inhibition at 10 uM: ABL1, 10 μM, Fig 6C median ± standard deviation (n = 2)
  inhibition at 10 µM: 19 ± 2%
[8]; ABL2/ARG, 10uM, ATP 30 uM, Data 1, Data 2, read-out: % Enzyme Activity (relative to DMSO controls)
  remaining activity at 10 µM: 63.6%
[8]; read-out: % inhibition at 10 uM: ABL2, 10 μM, Fig 6C median ± standard deviation (n = 2)
  inhibition at 10 µM: 32 ± 7%
[9]
  pActivity, HSP90AB1: 6.55
[10]; DDR1, 10uM, ATP 100 uM, Data 1, Data 2, read-out: % Enzyme Activity (relative to DMSO controls)
  remaining activity at 10 µM: 20.1%
[10]; read-out: % inhibition at 10 uM: DDR1, 10 μM, Fig 6C median ± standard deviation (n = 2)
  inhibition at 10 µM: 81%
[11]
  pActivity, PIM1: 5.8
[12]; LCK, 10uM, ATP 15 uM, Data 1, Data 2, read-out: % Enzyme Activity (relative to DMSO controls)
  remaining activity at 10 µM: 61.4%
[12]; read-out: % inhibition at 10 uM: LCK, 10 μM, Fig 6C median ± standard deviation (n = 2)
  inhibition at 10 µM: 36 ± 4%
[13]; TRKA, 10uM, ATP 100 uM, Data 1, Data 2, read-out: % Enzyme Activity (relative to DMSO controls)
  remaining activity at 10 µM: 34.6%
[13]; read-out: % inhibition at 10 uM: TRKA, 10 μM, Fig 6C median ± standard deviation (n = 2)
  inhibition at 10 µM: 66 ± 1%
[14]; PASK, 10uM, ATP 50 uM, Data 1, Data 2, read-out: % Enzyme Activity (relative to DMSO controls)
  remaining activity at 10 µM: 101%
[14]; read-out: % inhibition at 10 uM: PASK, 10 μM, Fig 6C median ± standard deviation (n = 2)
  inhibition at 10 µM: 0%
[15]; FYN, 10uM, ATP 30 uM, Data 1, Data 2, read-out: % Enzyme Activity (relative to DMSO controls)
  remaining activity at 10 µM: 31.4%
[15]; read-out: % inhibition at 10 uM: FYN, 10 μM, Fig 6C median ± standard deviation (n = 2)
  inhibition at 10 µM: 69%
[16]; TRKC, 10uM, ATP 100 uM, Data 1, Data 2, read-out: % Enzyme Activity (relative to DMSO controls)
  remaining activity at 10 µM: 96.1%
[16]; read-out: % inhibition at 10 uM: TRKC, 10 μM, Fig 6C median ± standard deviation (n = 2)
  inhibition at 10 µM: 5 ± 1%
[17]
  pActivity, LTK: 5.6
[18]; 10 μM, Fig 6C median ± standard deviation (n = 2)
  % inhibition at 10 uM: PEAK1: 83 ± 1%
[18]; PEAK1, 10uM, ATP 30 uM, Data 1, Data 2, read-out: % Enzyme Activity (relative to DMSO controls)
  remaining activity at 10 µM: 16.4%
[18]; read-out: % inhibition at 10 uM: PEAK1, 10 μM, Fig 6C median ± standard deviation (n = 2)
  inhibition at 10 µM: > 70%
[19]; YES/YES1, 10uM, ATP 50 uM, Data 1, Data 2, read-out: % Enzyme Activity (relative to DMSO controls)
  remaining activity at 10 µM: 92%
[19]; read-out: % inhibition at 10 uM: YES, 10 μM, Fig 6C median ± standard deviation (n = 2)
  inhibition at 10 µM: 9 ± 1%
[20]
  pActivity, MET: 5.6
